Laboratory results taken from PubChem BioAssay (NCI).
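Growth conditions: 96-well plates. Treatment: test compound, 48 hours, 5 concentrations. Analysis: linear interpolation between bracketing concentrations; unreached endpoints set to highest concentration. GI50 marks 50% less growth. TGI denotes the concentration required for complete inhibition of growth.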

Assays:
Assay in all cases: inhibition of tumour cell growth, NCI panel, 48 h
T-47D breast = tested on: T-47D breast
RPMI-8226 leukemia = tested on: RPMI-8226 leukemia
HL-60(TB) leukemia = tested on: HL-60(TB) leukemia
LOX IMVI melanoma = tested on: LOX IMVI melanoma
HCC-2998 colon = tested on: HCC-2998 colon
OVCAR-5 ovarian = tested on: OVCAR-5 ovarian
DU-145 prostate = tested on: DU-145 prostate
MOLT-4 leukemia = tested on: MOLT-4 leukemia
IGROV1 ovarian = tested on: IGROV1 ovarian
K-562 leukemia = tested on: K-562 leukemia
A549 NSCLC = tested on: A549 NSCLC
HT29 colon = tested on: HT29 colon
HCT-116 colon = tested on: HCT-116 colon
SNB-19 CNS = tested on: SNB-19 CNS
A498 renal = tested on: A498 renal
M14 melanoma = tested on: M14 melanoma
SK-MEL-28 melanoma = tested on: SK-MEL-28 melanoma
OVCAR-4 ovarian = tested on: OVCAR-4 ovarian
UACC-257 melanoma = tested on: UACC-257 melanoma
NCI-H522 lung = tested on: NCI-H522 lung
MCF7 breast = tested on: MCF7 breast
MALME-3M melanoma = tested on: MALME-3M melanoma
MDA-MB-435 = tested on: MDA-MB-435
BT-549 breast = tested on: BT-549 breast
SNB-75 CNS = tested on: SNB-75 CNS
UACC-62 melanoma = tested on: UACC-62 melanoma
SK-MEL-2 melanoma = tested on: SK-MEL-2 melanoma
NCI-H226 lung = tested on: NCI-H226 lung
CAKI-1 renal = tested on: CAKI-1 renal

## COc1ccc(-n2c(SCC(=O)Nc3ccc(-c4nc5ccccc5[nH]4)cc3)nc3ccccc3c2=O)cc1
T-47D breast
  GI50: 17.3 µM
  TGI: 36.7 µM
RPMI-8226 leukemia
  GI50: 3.72 µM
  TGI: 70.5 µM
HL-60(TB) leukemia
  GI50: 9.91 µM
  TGI: > 100 µM
LOX IMVI melanoma
  GI50: 2.1 µM
  TGI: 3.91 µM
HCC-2998 colon
  GI50: 14.3 µM
  TGI: 46 µM
OVCAR-5 ovarian
  GI50: 23.7 µM
  TGI: > 100 µM
DU-145 prostate
  GI50: 10.9 µM
  TGI: 33 µM
MOLT-4 leukemia
  GI50: 5.85 µM
  TGI: > 100 µM
IGROV1 ovarian
  GI50: 15.2 µM
  TGI: 42.9 µM
K-562 leukemia
  GI50: 4.82 µM
  TGI: > 100 µM
A549 NSCLC
  GI50: 3.58 µM
  TGI: 14.2 µM
HT29 colon
  GI50: 15 µM
  TGI: 36.5 µM
HCT-116 colon
  GI50: 4.88 µM
  TGI: 26.2 µM
SNB-19 CNS
  GI50: 17.9 µM
  TGI: 60.2 µM
A498 renal
  GI50: > 100 µM
  TGI: > 100 µM
M14 melanoma
  GI50: 13.1 µM
  TGI: 55.5 µM
SK-MEL-28 melanoma
  GI50: 3.52 µM
  TGI: 13.4 µM
OVCAR-4 ovarian
  GI50: 7.74 µM
  TGI: 20.8 µM
UACC-257 melanoma
  GI50: 19 µM
  TGI: 39.2 µM
NCI-H522 lung
  GI50: 14.5 µM
  TGI: 32.3 µM
MCF7 breast
  GI50: 2.05 µM
  TGI: 5.11 µM
MALME-3M melanoma
  GI50: 2.58 µM
  TGI: 16.2 µM
MDA-MB-435
  GI50: 9.17 µM
  TGI: 27.6 µM
BT-549 breast
  GI50: 8.06 µM
  TGI: 24.5 µM
SNB-75 CNS
  GI50: 19.9 µM
  TGI: 91.9 µM
UACC-62 melanoma
  GI50: 15.8 µM
  TGI: 30.5 µM
SK-MEL-2 melanoma
  GI50: 50.7 µM
  TGI: > 100 µM
NCI-H226 lung
  GI50: > 100 µM
  TGI: > 100 µM
CAKI-1 renal
  GI50: 29.7 µM
